Assay results as given in PMC9254721, “Global update on the susceptibilities of human influenza viruses to neuraminidase inhibitors and the cap-dependent endonuclease inhibitor baloxavir, 2018–2020” (Antiviral research, 2022).
Values joined by “and” are separate entries in the source; they are usually repeats but may differ in a detail not shown here. Identical values can stand only once.

Key:
[1] = system: A(H3N2) virus neuraminidase (NA); format: biochemical, influenza A(H3N2) virus
[2] = system: A(H1N1)pdm09 virus neuraminidase (NA); format: biochemical, influenza A(H1N1)pdm09 virus
[3] = system: recombinant A(H1N1) virus; settings: PA-A37S in a recombinant A(H1N1) virus; ref Hashimoto et al., 2021; cited from earlier work
influenza viruses [4] = settings: PA-I38V, PA-E199G alone, when present in other subtypes; ref PA marker table; cited from earlier work
A(H1N1)pdm09 viruses = format: cell-based, influenza A(H1N1)pdm09 virus
influenza viruses [5] = format: cell-based, influenza virus
A(H3N2) viruses = format: cell-based, influenza A(H3N2) virus
[6] = system: B/Victoria-lineage viruses; format: cell-based, influenza B/Victoria-lineage virus
[7] = system: B/Victoria-lineage virus neuraminidase (NA); format: biochemical, influenza B/Victoria-lineage virus

## CC(=O)N[C@H]1[C@H]([C@H](O)[C@H](O)CO)OC(C(=O)O)=C[C@@H]1N=C(N)N [Zanamivir, zanamivir]
[1]
  inhibition phenotype (NI/RI/HRI): RI (key: normal inhibition (NI) is a <10-fold increase in the NAI IC50; RI is a 10- to 100-fold increase; HRI is a >100-fold increase)

## [H]/N=C(\N)N[C@H]1C=C(C(=O)O)O[C@@H]([C@H](OC)[C@H](O)CO)[C@@H]1NC(C)=O [Laninamivir, laninamivir]
[2]
  inhibition phenotype (NI/RI/HRI): RI (key: normal inhibition (NI) is a <10-fold increase in the NAI IC50; RI is a 10- to 100-fold increase; HRI is a >100-fold increase)

## COC(=O)OCOc1c2n(ccc1=O)N([C@@H]1c3ccccc3SCc3c1ccc(F)c3F)[C@@H]1COCCN1C2=O [baloxavir, baloxavir marboxil]
[3]
  effect of substitution on baloxavir susceptibility: did not alter baloxavir susceptibility
Influenza viruses [4]
  effect of substitutions on in vitro baloxavir susceptibility: little or no effect
A(H1N1)pdm09 viruses
  Fold-change in susceptibility to baloxavir compared to PA sequence-matched control virus: 4.7 [4.1] fold and 2.90 [3.7] fold
  fold increase in EC50 compared to a PA sequence matched control: 4.1 fold
Influenza viruses [5]
  change in baloxavir susceptibility: no change
  fold increase in EC50 as compared to the respective median EC50s: < 3 fold
A(H3N2) viruses
  fold increase in EC50 compared to the respective PA sequence-matched controls: < 3 fold
[6]
  EC50 fold-change as compared to reference median EC50: 0.88 [1.5] fold and 0.6 fold
  Fold-change in susceptibility to baloxavir compared to PA sequence-matched control virus: 0.88 [1.5] fold

## CCC(CC)[C@H](NC(C)=O)[C@@H]1[C@H](O)[C@@H](C(=O)O)C[C@H]1N=C(N)N [Peramivir, peramivir]
[1]
  IC50 fold-change as compared to reference median IC50 values: 2 fold and 1.5 fold and 1 fold
  IC50 fold-change compared to reference median IC50 values: 2 (1) fold and 1.5 fold and 1 fold

## CCOC(=O)C1=C[C@@H](OC(CC)CC)[C@H](NC(C)=O)[C@@H](N)C1 [Oseltamivir, oseltamivir]
[1]
  inhibition phenotype (NI/RI/HRI): RI (key: normal inhibition (NI) is a <10-fold increase in the NAI IC50; RI is a 10- to 100-fold increase; HRI is a >100-fold increase)
[7]
  inhibition phenotype (NI/RI/HRI): RI/HRI
